Laboratory results as given in PubChem BioAssay AID1418 (Emory University Molecular Libraries Screening Center, 2008).
Active and inactive are the calls of the source. The rule behind the calls is not given here.

Target: Induced myeloid leukemia cell differentiation protein Mcl-1 (Homo sapiens) (UniProt Q07820)
Test: blockers of Bid binding to Mcl-1 – biochemical, TR-FRET, dose response (AID 1418)
Conditions: Mcl-1/Bid peptide binding, TR-FRET (europium/Dy647), 2 hr

Chain of Induced myeloid leukemia cell differentiation protein Mcl-1 (Homo sapiens) (Q07820 whole entry, looked up): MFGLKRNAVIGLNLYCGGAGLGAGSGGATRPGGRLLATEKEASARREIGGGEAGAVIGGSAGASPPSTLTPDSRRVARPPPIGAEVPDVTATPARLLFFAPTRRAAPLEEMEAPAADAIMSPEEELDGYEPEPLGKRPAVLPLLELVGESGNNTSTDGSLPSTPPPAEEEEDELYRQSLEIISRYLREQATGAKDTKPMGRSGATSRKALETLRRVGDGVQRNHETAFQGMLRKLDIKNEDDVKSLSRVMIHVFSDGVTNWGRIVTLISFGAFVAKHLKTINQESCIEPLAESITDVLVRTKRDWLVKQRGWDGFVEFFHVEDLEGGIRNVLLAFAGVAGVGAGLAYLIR

| Structure (SMILES) | IC50 |
| --- | --- |
| CCS(=O)(=O)NCc1ccc2c(c1)cc(C)n2C | > 54 µM (inactive) |
| C=C1C(=O)[C@@]23[C@H](O)C[C@@H]4C(C)(C)CC[C@H](O)[C@]4(C)[C@@H]2C[C@H](O)[C@@H]1[C@H]3O | > 54 µM (inactive) |
| O=C(COc1ccc(/C=N/NC(=O)c2cc3ccccc3o2)cc1Br)Nc1ccccc1 | 0.61 µM |
| Cc1occc1C(=O)NNC(=O)Nc1ccc([N+](=O)[O-])cc1 | > 54 µM (inactive) |
| Cc1ccc(Cl)c(OCCCN(C)Cc2ccccc2)c1 | > 54 µM (inactive) |
| Oc1c(Cl)cc(Cl)c(Cl)c1Cc1c(O)c(Cl)cc(Cl)c1Cl | 0.86 µM |
| COc1cc(C(=O)Nc2ccc3c(c2)C(=O)c2ccccc2C3=O)cc(OC)c1OC | 9.01 µM |
| O=C(CSc1ccccn1)Nc1ccc2c(c1)C(=O)c1ccccc1C2=O | 1.72 µM |
| COc1ccc(CCNC(=O)c2ccc(Cl)cc2Cl)cc1OC | > 54 µM (inactive) |
| CN(C)S(=O)(=O)c1cc(S(=O)(=O)N(C)C)c(Cl)cc1N | > 54 µM (inactive) |
| COc1ccc(Nc2ncc(C(=O)N3CCN(c4ccc(F)cc4)CC3)c3ccccc23)cc1 | > 54 µM (inactive) |
| CC(C)N(C(=O)c1sc2cc([N+](=O)[O-])ccc2c1Cl)C(C)C | > 54 µM (inactive) |
| COc1ccc(CCNC(=O)COC(=O)Cc2ccccc2)cc1 | > 54 µM (inactive) |
| CN(NC(=O)COc1ccccc1)c1ccccc1 | > 54 µM (inactive) |
| Oc1[nH]c2ccccc2c1/C=N/N1CCCCC1 | > 54 µM (inactive) |
| O=C(CN(C(=O)CNC(=O)c1ccco1)c1ccc2c(c1)OCO2)NC1CCCCC1 | > 54 µM (inactive) |
| Cc1csc(CCc2nc(C)cs2)n1 | > 54 µM (inactive) |
| CC(=O)OCCn1c2nc(=O)[nH]c(=O)c-2nc2cc(C)c(C)cc21 | 18.8 µM |
| O=C(CSc1cccc[n+]1[O-])Nc1cc2c(cc1Cl)C(=O)c1ccccc1C2=O | 9.39 µM |
| Cc1ccc(-c2noc(-c3ccccc3C(=O)N3CCN(C)CC3)n2)cc1 | > 54 µM (inactive) |
| O=C(COc1ccccc1)N1CCN(Cc2c[nH]c3ccccc23)CC1 | > 54 µM (inactive) |
| COC(=O)C(CC(C)C)NC(=O)c1ccc(F)cc1 (stereo not given) | > 54 µM (inactive) |
| Cc1ccc(N=Nc2c(N)[nH]n3c(=O)cc(-c4ccccc4)nc23)cc1 | inactive |
| Cc1ccc(-n2c(SCC(=O)NCc3ccco3)nc3sc4c(c3c2=O)CC(C)(C)SC4)cc1 | > 54 µM (inactive) |

| Structure (SMILES) | IC50 |
| --- | --- |
| O=S(=O)(NCc1ccccc1)c1cccc(S(=O)(=O)N2CCOCC2)c1 | > 54 µM (inactive) |
| O=C(c1cnn2c(C(F)(F)F)cc(-c3cccs3)nc12)N1CCOCC1 | > 54 µM (inactive) |
| Clc1ccc(OCCN2CCCCC2)c(Cl)c1 | > 54 µM (inactive) |
| Nc1cccc(C(=O)OCC(=O)Nc2cccc3c2C(=O)c2ccccc2C3=O)c1 | 2.38 µM |
| O=c1c(CN2CCN(Cc3ccccc3)CC2)coc2ccc(Cl)cc12 | > 54 µM (inactive) |
| O=C(O)Cn1cnc2c(=S)nc[nH]c21 | > 54 µM (inactive) |
| Cc1ccc(-c2nc(SCC(=O)Nc3ccccc3OC(F)F)c3c(C)c(C(=O)O)sc3n2)cc1 | > 54 µM (inactive) |
| CCOC(=O)N1CCN(c2nc(C)c3c(n2)CCCC3=O)CC1 | > 54 µM (inactive) |
| O=c1[nH]c(=O)n(CCc2ccccc2)c(O)c1C=NCc1ccc2c(c1)OCO2 | inactive |
| O=C(NC(Cc1ccccc1)C(=O)O)c1ccc(S(=O)(=O)N2CCCCC2)cc1 (stereo not given) | > 54 µM (inactive) |
| O=c1oc2ccccc2n1CCn1c2ccccc2c2nc3ccccc3nc21 | 8.21 µM |
| CC(=O)C1=C(C)NC(SCC(N)=O)=C(C#N)C1c1cccnc1 (stereo not given) | > 54 µM (inactive) |
| C=CCn1c(SCC(=O)c2[nH]c(C)c(C(=O)OCC)c2C)nc2scc(-c3ccc(OC)c(OC)c3)c2c1=O | 0.84 µM |
| COc1cc(-c2ccc(Nc3ccccc3C(=O)O)c(OC)c2)ccc1Nc1ccccc1C(=O)O | 0.85 µM |
| O=C(Nc1cccc(-c2csc(-c3ccccc3)n2)c1)c1cccs1 | > 54 µM (inactive) |
| COc1ccccc1C1C(C#N)=C(N)Oc2c1c(-c1ccccc1)nn2-c1ccccc1 (stereo not given) | > 54 µM (inactive) |
| CCOC(=O)N1CCN(C(=O)CSc2ccc3nnc(CCNC(=O)c4ccc(OC)cc4)n3n2)CC1 | > 54 µM (inactive) |
| CC(C)C(C(=O)O)N1C(=O)/C(=C/C=C/c2ccco2)SC1=S (stereo not given) | 2.35 µM |
| O=C(COC(=O)CCNS(=O)(=O)c1ccc2c(c1)OCCO2)NC1CCCc2ccccc21 (stereo not given) | > 54 µM (inactive) |
| COc1cccc2cc(C(=O)Oc3ccc(NC(C)=O)cc3)c(=O)oc12 | > 54 µM (inactive) |
| O=C(O)c1ccc(CS(=O)(=O)Cc2ccccc2F)o1 | > 54 µM (inactive) |
| Cc1cc(/C=N/NC(=O)c2cccs2)c(C)n1-c1ccccc1 | > 54 µM (inactive) |
| CCOC(=O)c1c(C)oc2c1c(C(c1cccnc1)N1CCOCC1)c(O)c1ccccc12 (stereo not given) | 0.85 µM |
| COc1ccc(CCNC(=O)c2ccc(=O)[nH]n2)cc1OC | > 54 µM (inactive) |

| Structure (SMILES) | IC50 |
| --- | --- |
| CCOc1ccc(-n2c(-c3ccoc3)nc3ccccc3c2=O)cc1 | > 54 µM (inactive) |
| O=C(NCC1CCCO1)c1ccc(CSCc2cccc(F)c2)o1 (stereo not given) | > 54 µM (inactive) |
| COC(=O)c1ccc(NC(=O)c2ccccc2N(C)S(=O)(=O)c2ccccc2)cc1 | > 54 µM (inactive) |
| Cc1ccc(S(=O)(=O)CCC(=O)OCC(=O)Nc2ncc(Cl)cc2Cl)cc1 | > 54 µM (inactive) |
| Oc1c(C(c2ccc(Cl)cc2)N2CCCC2)cc(Cl)c2cccnc12 (stereo not given) | 1.16 µM |
| Cc1cccc(CN2CCc3c(OCC(=O)NCc4ccco4)cccc3C2=O)c1 | > 54 µM (inactive) |
| Cc1ccc(OCC(=O)NCc2ccco2)c([N+](=O)[O-])n1 | > 54 µM (inactive) |
| C=CCn1cc(C(=O)NCc2ccco2)c(=O)c2cc(S(=O)(=O)N3CCCCCC3)ccc21 | > 54 µM (inactive) |
| COc1cc(/C=C2\SC(=O)N(Cc3ccc(Cl)cc3)C2=O)cc([N+](=O)[O-])c1O | 16.9 µM |
| CCN(CCNC(=O)CN1CCN(Cc2ccc(Cl)cc2)C1=O)c1ccccc1 | > 54 µM (inactive) |
| O=C(c1ccccc1)N1CCN(C2CCCCCC2)CC1 | > 54 µM (inactive) |
| CN(C)S(=O)(=O)c1cccc(N=c2scc(-c3ccc4c(c3)NC(=O)CO4)n2CC2CCCO2)c1 (stereo not given) | > 54 µM (inactive) |
| COc1cccc(CNc2nc3ccc(C)cc3n3cnnc23)c1 | > 54 µM (inactive) |
| Brc1ccccc1 | > 54 µM (inactive) |
| CCOC(=O)c1cc(C#N)c(SCC(=O)OC)[nH]c1=O | > 54 µM (inactive) |
| CCOC(=O)c1c2ccc(OCC(=O)N/N=C/c3ccc(C)cc3)cc2n2ccccc12 | 6.23 µM |
| C=C(C=O)CC1CC(O)[C@]2(C)OC3CC4OC5C[C@]6(C)O[C@]7(C)CCC8OC9C[C@]%10(C)OC%11C(C)=CC(=O)OC%11CC%10OC9C[C@@H](C)C8OC7CC6O[C@]5(C)CC5OC5C4OC3CC2O1 (stereo not given in full) | > 54 µM (inactive) |
| COc1cc2c(cc1OC)C(Nn1cnnc1)=NC1(CCCC1)C2 | > 54 µM (inactive) |
| COc1ccccc1C(=O)NC(=S)NNC(=O)c1sc2ccccc2c1Cl | 1.7 µM |
| CCc1cc(C(c2ccc(F)cc2)N2CCOCC2)c(NC(=O)c2ccccc2)s1 (stereo not given) | > 54 µM (inactive) |
| O=C(/C=C/c1cccs1)Nc1scc(-c2ccccc2)c1C(=O)O | 0.54 µM |
| COc1ccc(NC(=O)c2cc(C3CC3)on2)c(OC)c1 | > 54 µM (inactive) |
